From the supplement of paper PMC4858399

Assays:
Details in all cases: exposure time 48 h
[1] = test system: Caenorhabditis elegans N2; test: AC50 for larval growth inhibition (Hill fit); higher = less potent
Procedure, shortened: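 Synchronised C. elegans N2 L1 larvae, 50 per well in 96-well plates, were grown at 20°C for 48 h in K-medium with killed OP50, 1% DMSO and 0.5–200 µM chemical. Worm size was read on a COPAS Biosort as extinction, log-transformed and averaged per well, and only wells holding at least 10 worms were kept. AC50 was obtained by a constrained Hill fit using weighted genetic-algorithm regression, with out-of-range values censored.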

[2] = test system: Caenorhabditis elegans N2; test: lowest effective concentration for larval growth inhibition (size below effect threshold); higher = less potent
Procedure, shortened: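 Worm size was taken as per-worm extinction on the Biosort, log-transformed and turned into well means. The larvae (C. elegans N2, L1 stage, 50 per 96-well) had spent 48 h at 20°C in K-medium with killed bacteria, 1% DMSO and 0.5, 1, 5, 10, 50, 100 or 200 µM chemical. The lowest effective concentration marks the first dose where the plate-adjusted mean size drops under a cutoff and remains under it at every higher dose; the cutoff is 5.665.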

[3] = test system: Caenorhabditis elegans N2; test: mean nematode size ln(EXT) after 48 h, plate-adjusted (DMSO control set to 6) (ln(EXT), control-adjusted); higher = larger nematodes / less growth inhibition
Procedure, shortened: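 A growth model removed debris from Biosort extinction readings taken on each worm. These worms were synchronised C. elegans N2 L1 larvae, 50 per well in 4–6 wells per treatment, grown for 48 h at 20°C in K-medium with killed OP50, 1% DMSO and 0.5–200 µM chemical. Readings were natural-logged and averaged by well to give mean size. On each plate, the vehicle control mean was subtracted and 6 was added.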

Row | Structure (SMILES) | AC50 for larval growth inhibition [1] | lowest effective concentration [2] | mean nematode size ln(EXT) (ln) ([3]; 0.5 µM) | mean nematode size ln(EXT) (ln) ([3]; 1 µM) | mean nematode size ln(EXT) (ln) ([3]; 5 µM) | mean nematode size ln(EXT) (ln) ([3]; 10 µM) | mean nematode size ln(EXT) (ln) ([3]; 50 µM) | mean nematode size ln(EXT) (ln) ([3]; 100 µM) | mean nematode size ln(EXT) (ln) ([3]; 200 µM)
1 | CCC(C)(C)c1ccc(O)c(C(C)(C)CC)c1 [Phenol, 2,4-bis(1,1-dimethylpropyl)-] | 175 µM | 10 µM | 5.8 | 5.87 | 5.76 | 5.65 | 5.4 | 4.93 | 4.37
2 | CC(C)(C)c1ccc(O)c(C(C)(C)C)c1 [2,4-Di-tert-butylphenol] | 186 µM | 50 µM | 5.97 | 5.97 | 5.99 | 5.88 | 5.62 | 5.5 | 4.45
3 | CC(C)Oc1cccc(NC(=O)c2ccccc2C(F)(F)F)c1 [Flutolanil] | 192 µM | 200 µM | 5.94 | 5.98 | 6.08 | 6.01 | 5.5 | 6.3 | 5.43
4 | CC(C)(O)c1coc(S(=O)(=O)NC(=O)Nc2c3c(cc4c2CCC4)CCC3)c1 | 111 µM | 200 µM | 5.93 | 6.15 | 6.24 | 6.2 | 6.09 | 5.98 | 5.63
5 | CCOC(=O)C(Cl)Cc1cc(-n2nc(C)n(C(F)F)c2=O)c(F)cc1Cl (stereo unspecified) [Carfentrazone-ethyl] | > 200 µM | 200 µM | 6.04 | 5.98 | 6.04 | 6.04 | 5.93 | 5.98 | 5.59
6 | c1ccc(Nc2ccccc2)cc1 [Diphenylamine] | 7.4 µM | 10 µM | 5.86 | 5.75 | 5.83 | 4.11 | 3.96 | 3.87 | 4.5
7 | COC(=O)c1ccc(C(=O)OC)cc1 [Dimethyl terephthalate] | > 200 µM | 200 µM | 5.9 | 5.9 | 5.87 | 5.83 | 5.81 | 5.83 | 5.09
8 | CCOc1ccc2[nH]cc(C(=O)NCc3ccccc3)c(=O)c2n1 | > 200 µM | 200 µM | 5.85 | 5.84 | 5.84 | 5.96 | 5.91 | 5.86 | 5.63
9 | O=c1[nH]sc2ccccc12 [1,2-Benzisothiazolin-3-one] | > 200 µM | 100 µM | 5.72 | 5.71 | 5.73 | 5.74 | 5.69 | 5.5 | 5.48
10 | CCCOc1sc(C(=O)N2CCC(c3cc(CN)ccc3F)CC2)c(C)c1Br | 9.86 µM | 5 µM | 5.68 | 5.67 | 5.54 | 4.86 | 3.73 | 3.92 | –
11 | Oc1ccccc1-c1ccccc1 [2-Phenylphenol] | 179 µM | 200 µM | 5.84 | 5.73 | 5.68 | 5.99 | 6.05 | 5.96 | 5.13
12 | C=C(C)C(=O)OCCC(F)(F)C(F)(F)C(F)(F)C(F)(F)C(F)(F)C(F)(F)F [3,3,4,4,5,5,6,6,7,7,8,8,8-Tridecafluorooctyl methacrylate] | 23 µM | 50 µM | 5.88 | 5.84 | 5.84 | 5.73 | 5.6 | 5.45 | 5.57
13 | CC(Oc1ccc(Cl)cc1Cl)C(=O)O (stereo unspecified) [Dichlorprop] | 106 µM | 200 µM | 5.91 | 5.93 | 5.86 | 6.06 | 6.04 | 5.88 | 5.44
14 | CCOP(=S)(OCC)Oc1ccc2c(C)c(Cl)c(=O)oc2c1 [Coumaphos] | 3.33 µM | ≤ 0.5 µM | 5.36 | 5.23 | 4.39 | 4.44 | 3.95 | 3.82 | 3.58
15 | CCOc1cc(Oc2ccc(C(F)(F)F)cc2Cl)ccc1[N+](=O)[O-] [Oxyfluorfen] | 3.64 µM | ≤ 0.5 µM | 5.57 | 5.42 | 4.64 | 3.99 | 3.63 | 3.63 | 3.46
16 | CC(COc1ccc(Oc2ccccc2)cc1)Oc1ccccn1 (stereo unspecified) [Pyriproxyfen] | 1.37 µM | ≤ 0.5 µM | 5.55 | 5.44 | 5.14 | 4.87 | 4.84 | 4.7 | 4.81
17 | Cc1ccc(-c2cc(C(F)(F)F)nn2-c2ccc(S(N)(=O)=O)cc2)cc1 [Celecoxib] | 30.3 µM | 50 µM | 5.9 | 5.92 | 5.8 | 5.81 | 4.7 | 4.53 | 4.22
18 | CCCCCCCCCCCCCCCCO [1-Hexadecanol] | > 200 µM | 200 µM | 5.89 | 5.83 | 5.86 | 5.79 | 5.68 | 5.79 | 5.64
19 | On1ccccc1=S [Sodium (2-pyridylthio)-N-oxide] | > 200 µM | 200 µM | 5.88 | 5.86 | 5.84 | 5.87 | 5.74 | 5.74 | 5.51
20 | CCC(C)(c1ccc(O)cc1)c1ccc(O)cc1 [Bisphenol B] | 87.1 µM | 100 µM | 5.9 | 5.81 | 5.9 | 5.74 | 5.87 | 5.14 | 4.74
21 | CO/N=C(/C(=O)OC)c1ccccc1CO/N=C(\C)c1cccc(C(F)(F)F)c1 [Trifloxystrobin] | 90.8 µM | 100 µM | 5.88 | 5.87 | 5.71 | 5.82 | 5.92 | 4.16 | 3.43
22 | CCNP(=S)(OC)O/C(C)=C/C(=O)OC(C)C (stereo unspecified) [Propetamphos] | > 200 µM | 50 µM | 5.88 | 5.88 | 5.75 | 5.71 | 4.95 | 5.45 | 3.98
23 | CCCCCCOC(=O)c1ccccc1C(=O)OCCCCCC [Dihexyl phthalate] | > 200 µM | 200 µM | 5.8 | 5.83 | 5.89 | 5.83 | 5.81 | 5.73 | 5.5
